From patent US12344597B2, “Alkoxy-substituted pyridinyl derivatives as LPA1 receptor antagonists and their use in the treatment of fibrosis” (IDORSIA PHARMACEUTICALS LTD, priority 2018, dated 2025)
Counter-ions that a name gives are not always drawn.

Target: human LPA1 receptor (Homo sapiens (Human), UniProt Q92633)
Test: Beta-arrestin recruitment assay to determine IC50 values for human LPAR1
Format: cell-based
Details: antagonist mode, Tango EDG2-bla U2OS cells, LPA 18:1 500 nM final
Excerpt: Beta-Arrestin Recruitment Assay to Determine IC50 Values for Human LPAR1
The Tango™ EDG2-bla U2OS cells are obtained from Invitrogen. These cells contain the human LPA1 receptor cDNA linked to a TEV protease site and a Gal4-VP16 transcription factor integrated into the Tango™ GPCR-bla U2OS parental cell line. This parental cell line stably expresses a beta-arrestin/TEV protease fusion protein and the beta-lactamase (bla) reporter gene under the control of a UAS response element. Upon LPA (agonist) binding, LPA1 receptor gets activated, leading to arrestin-protease recruitment and proteolytic release of the transcription factor: The transcription factor then regulates transcription of a beta-lactamase reporter construct, which is measured upon addition of the live-cell substrate.
10′000 Tango™ EDG2-bla U2OS cells are seeded in a 384-well black with clear bottom plate in 30 μl Freestyle 293 Expression Medium (Invitrogen) and incubated for 20 h at 37° C., 5% CO2. […] IC50 is the concentration of antagonist inhibiting 50% of the maximal response.

Chain of human LPA1 receptor (Q92633 whole entry): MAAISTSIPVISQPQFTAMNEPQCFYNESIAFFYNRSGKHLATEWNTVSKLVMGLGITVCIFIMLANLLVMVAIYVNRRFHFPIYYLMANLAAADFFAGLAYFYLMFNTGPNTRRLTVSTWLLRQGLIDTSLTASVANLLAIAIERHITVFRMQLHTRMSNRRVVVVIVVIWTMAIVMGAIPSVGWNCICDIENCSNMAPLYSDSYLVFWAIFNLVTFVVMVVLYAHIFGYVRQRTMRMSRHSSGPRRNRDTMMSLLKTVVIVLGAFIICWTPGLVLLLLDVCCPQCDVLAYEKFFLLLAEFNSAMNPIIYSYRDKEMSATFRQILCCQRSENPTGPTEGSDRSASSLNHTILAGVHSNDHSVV

Compound	IC50 [nM]
Cc1ccc(NC(=O)C2(c3ccccc3C(C)C)CN(CC(C)(C)C(=O)O)C2)c(OC(F)F)n1 [Ex 11-25, 3-(3-((2-(difluoromethoxy)-6-methylpyridin-3-yl)carbamoyl)-3-(2-isopropylphenyl)azetidin-1-yl)-2,2-dimethylpropanoic acid]	20
Cc1ccc(NC(=O)C2(c3ccccc3C(C)C)CCN(C(=O)CC(=O)O)CC2)c(OC(F)F)n1 [Ex 12-66, 3-(4-((2-(difluoromethoxy)-6-methylpyridin-3-yl)carbamoyl)-4-(2-isopropylphenyl)piperidin-1-yl)-3-oxopropanoic acid]	12
N-(2-(difluoromethoxy)-6-methylpyridin-3-yl)-1-(2-(1-(2-hydroxyethyl)piperidin-4-yl)acetyl)-3-(2-isopropylphenyl)azetidine-3-carboxamide [Ex 12-140]	122
COC(=O)c1cc(CN2CC(C(=O)Nc3ccc(C)nc3OC(F)F)(c3ccccc3C(C)C)C2)ccn1 [Ex 11-50, methyl 4-((3-((2-(difluoromethoxy)-6-methylpyridin-3-yl)carbamoyl)-3-(2-isopropylphenyl)azetidin-1-yl)methyl)picolinate]	47
COc1cnc(NC(=O)C2(c3ccccc3C(C)C)CN(S(N)(=O)=O)C2)c(OC)c1 [Ex 81-5, N-(3,5-dimethoxypyridin-2-yl)-3-(2-isopropylphenyl)-1-sulfamoylazetidine-3-carboxamide]	63
Cc1ccc(NC(=O)C2(c3ccccc3C(C)C)CN(C(=O)[C@H](O)[C@@H](O)C(=O)O)C2)c(OC(F)F)n1 [Ex 12-118, (2R,3R)-4-(3-((2-(difluoromethoxy)-6-methylpyridin-3-yl)carbamoyl)-3-(2-isopropylphenyl)azetidin-1-yl)-2,3-dihydroxy-4-oxobutanoic acid]	30
Cc1ccc(NC(=O)C2(c3ccccc3C(C)C)CN(c3ccc(C#N)cn3)C2)c(OC(F)F)n1 [Ex 18-22, 1-(5-cyanopyridin-2-yl)-N-(2-(difluoromethoxy)-6-methylpyridin-3-yl)-3-(2-isopropylphenyl)azetidine-3-carboxamide]	1
Cc1ccc(NC(=O)C2(c3ccccc3C(C)C)CN(C(=O)NCCC(=O)O)C2)c(OC(F)F)n1 [Ex 17-5, 3-(3-((2-(difluoromethoxy)-6-methylpyridin-3-yl)carbamoyl)-3-(2-isopropylphenyl)azetidine-1-carboxamido)propanoic acid]	41
N-(2-(difluoromethoxy)-6-methylpyridin-3-yl)-1-(3-(N-hydroxyacetamido)propanoyl)-3-(2-isopropylphenyl)azetidine-3-carboxamide [Ex 12-130]	48
Cc1ccc(NC(=O)C2(c3ccccc3C(C)C)CN(C(=O)CC3CCN(C)CC3)C2)c(OC(F)F)n1 [Ex 12-31, N-(2-(difluoromethoxy)-6-methylpyridin-3-yl)-3-(2-isopropylphenyl)-1-(2-(1-methylpiperidin-4-yl)acetyl)azetidine-3-carboxamide]	337
CC(=O)NS(=O)(=O)N1CC(C(=O)Nc2ccc(C)nc2OC(F)F)(c2ccccc2C(C)C)C1 [Ex 16-1, 1-(N-acetylsulfamoyl)-N-(2-(difluoromethoxy)-6-methylpyridin-3-yl)-3-(2-isopropylphenyl)azetidine-3-carboxamide]	69
CCOC(=O)c1nccc(N2CC(C(=O)Nc3ccc(C)nc3OC(F)F)(c3ccccc3C(C)C)C2)n1 [Ex 18-10, ethyl 4-(3-((2-(difluoromethoxy)-6-methylpyridin-3-yl)carbamoyl)-3-(2-isopropylphenyl)azetidin-1-yl)pyrimidine-2-carboxylate]	120
COc1ccc(NC(=O)C2(c3ccccc3C(C)C)CNC2)c(OC)n1 [Ex 6, N-(2,6-dimethoxypyridin-3-yl)-3-(2-isopropylphenyl)azetidine-3-carboxamide hydrochloride]	84
Cc1ccc(NC(=O)C2(c3ccccc3C(C)C)CCN(S(=O)(=O)CC(=O)O)CC2)c(OC(F)F)n1 [Ex 13-3, 2-((4-((2-(difluoromethoxy)-6-methylpyridin-3-yl)carbamoyl)-4-(2-isopropylphenyl)piperidin-1-yl)sulfonyl)acetic acid]	14
Cc1ccc(NC(=O)C2(c3ccccc3C(C)C)CN(Cc3ccc(C(=O)O)o3)C2)c(OC(F)F)n1 [Ex 11-57, 5-((3-((2-(difluoromethoxy)-6-methylpyridin-3-yl)carbamoyl)-3-(2-isopropylphenyl)azetidin-1-yl)methyl)furan-2-carboxylic acid]	12
Cc1ccc(NC(=O)C2(c3ccccc3C(C)C)CN(C(=O)CCC(=O)C(F)(F)F)C2)c(OC(F)F)n1 [Ex 12-11, N-(2-(difluoromethoxy)-6-methylpyridin-3-yl)-3-(2-isopropylphenyl)-1-(5,5,5-trifluoro-4-oxopentanoyl)azetidine-3-carboxamide]	7
CCOC(=O)COCCN1CC(C(=O)Nc2ccc(C)nc2OC(F)F)(c2ccccc2C(C)C)C1 [Ex 11-74, ethyl 2-(2-(3-((2-(difluoromethoxy)-6-methylpyridin-3-yl)carbamoyl)-3-(2-isopropylphenyl)azetidin-1-yl)ethoxy)acetate]	28
COC(CC(=O)O)S(=O)(=O)N1CC(C(=O)Nc2ccc(C)nc2OC(F)F)(c2ccccc2C(C)C)C1 (stereo not drawn) [Ex 13-27, 3-((3-((2-(difluoromethoxy)-6-methylpyridin-3-yl)carbamoyl)-3-(2-isopropylphenyl)azetidin-1-yl)sulfonyl)-3-methoxypropanoic acid]	28
Cc1ccc(NC(=O)C2(c3ccccc3C(C)C)CN(c3ccc(C(=O)O)nn3)C2)c(OC(F)F)n1 [Ex 18-7, 6-(3-((2-(difluoromethoxy)-6-methylpyridin-3-yl)carbamoyl)-3-(2-isopropylphenyl)azetidin-1-yl)pyridazine-3-carboxylic acid]	12
Cc1ccc(NC(=O)C2(c3ccccc3C3CC3)CN(C(=O)CC(C)(C)C(=O)O)C2)c(OC(F)F)n1 [Ex 31-1, 4-(3-(2-cyclopropylphenyl)-3-((2-(difluoromethoxy)-6-methylpyridin-3-yl)carbamoyl)azetidin-1-yl)-2,2-dimethyl-4-oxobutanoic acid]	19
COC(=O)c1ccc(CN2CC(C(=O)Nc3ccc(C)nc3OC(F)F)(c3ccccc3C(C)C)C2)cn1 [Ex 11-52, methyl 5-((3-((2-(difluoromethoxy)-6-methylpyridin-3-yl)carbamoyl)-3-(2-isopropylphenyl)azetidin-1-yl)methyl)picolinate]	79
Cc1ccc(NC(=O)C2(c3ccccc3C(C)C)CN(S(=O)(=O)NCCO)C2)c(OC(F)F)n1 [Ex 15-3, N-(2-(difluoromethoxy)-6-methylpyridin-3-yl)-1-(N-(2-hydroxyethyl)sulfamoyl)-3-(2-isopropylphenyl)azetidine-3-carboxamide]	11
CC(=O)NS(=O)(=O)CC(=O)N1CC(C(=O)Nc2ccc(C)nc2OC(F)F)(c2ccccc2C(C)C)C1 [Ex 16-3, 1-(2-(N-acetylsulfamoyl)acetyl)-N-(2-(difluoromethoxy)-6-methylpyridin-3-yl)-3-(2-isopropylphenyl)azetidine-3-carboxamide]	83
CCOC(=O)CCN1CC(C(=O)Nc2ccc(C)nc2OC(F)F)(c2ccccc2C(C)C)C1 [Ex 11-13, ethyl 3-(3-((2-(difluoromethoxy)-6-methylpyridin-3-yl)carbamoyl)-3-(2-isopropylphenyl)azetidin-1-yl)propanoate]	16
Cc1ccc(NC(=O)C2(c3ccccc3C(C)C)CN(C(=O)CC3CCN(CCF)CC3)C2)c(OC(F)F)n1 [Ex 12-141, N-(2-(difluoromethoxy)-6-methylpyridin-3-yl)-1-(2-(1-(2-fluoroethyl)piperidin-4-yl)acetyl)-3-(2-isopropylphenyl)azetidine-3-carboxamide]	204
Cc1ccc(NC(=O)C2(c3ccccc3C(C)C)CN(CC3(C(=O)O)COC3)C2)c(OC(F)F)n1 [Ex 11-91, 3-((3-((2-(difluoromethoxy)-6-methylpyridin-3-yl)carbamoyl)-3-(2-isopropylphenyl)azetidin-1-yl)methyl)oxetane-3-carboxylic acid]	46
Cc1ccc(NC(=O)C2(c3ccccc3C(C)C)CN(C(=O)C[C@](C)(O)C(=O)O)C2)c(OC(F)F)n1 [Ex 12-117, (S)-4-(3-((2-(difluoromethoxy)-6-methylpyridin-3-yl)carbamoyl)-3-(2-isopropylphenyl)azetidin-1-yl)-2-hydroxy-2-methyl-4-oxobutanoic acid]	7
Cc1ccc(NC(=O)C2(c3ccccc3C(C)C)CN(C(=O)/C=C\C(=O)O)C2)c(OC(F)F)n1 [Ex 12-77, (Z)-4-(3-((2-(difluoromethoxy)-6-methylpyridin-3-yl)carbamoyl)-3-(2-isopropylphenyl)azetidin-1-yl)-4-oxobut-2-enoic acid]	31
CC(C)c1ccccc1C1(C(=O)Nc2ncc(Cl)cc2OC(F)F)CNC1 [Ex 72, N-(5-chloro-3-(difluoromethoxy)pyridin-2-yl)-3-(2-isopropylphenyl)azetidine-3-carboxamide]	15
Cc1ccc(NC(=O)C2(c3ccccc3C(C)C)CN(C(=O)OCC3(C(=O)O)CC3)C2)c(OC(F)F)n1 [Ex 14-12, 1-(((3-((2-(difluoromethoxy)-6-methylpyridin-3-yl)carbamoyl)-3-(2-isopropylphenyl)azetidine-1-carbonyl)oxy)methyl)cyclopropane-1-carboxylic acid]	5
